{"source": "patent US20260262643A1", "about": "“HERBICIDAL BENZOXAZINES” (FMC CORPORATION, priority 2022, published 2026)", "key": {"barnyardgrass [1]": {"test_system": "barnyardgrass", "experiment": "Test D flooded paddy test", "format": "in vivo, Echinochloa crus-galli", "conditions": "250 g ai/ha, applied to paddy water, visual rating after 13 to 14 days, scale 0 to 100 (0 no effect, 100 complete control)", "outline": "(§1)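 Plants grown to the 2-leaf stage; pots flooded to 3 cm above soil at treatment and held at that depth throughout. Test compounds applied directly to the paddy water. After 13 to 14 days in a greenhouse, response was rated visually versus controls on a 0 (no effect) to 100 (complete control) scale.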"}, "rice": {"test_system": "rice", "experiment": "Test D flooded paddy test", "format": "in vivo, Oryza sativa", "conditions": "250 g ai/ha, applied to paddy water, visual rating after 13 to 14 days, scale 0 to 100 (0 no effect, 100 complete control)", "outline": "as §1"}, "wheat [2]": {"test_system": "wheat", "experiment": "Test C preemergence", "format": "in vivo, Triticum aestivum", "outline": "(§2)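 Pre: seeds in loam/sand, directed soil spray. Post: 1–2 leaf plants, 2–10 cm. Cmpd in non-phytotoxic solvent + surfactant. Greenhouse 10 d; visual rating vs untreated, 0 = none, 100 = complete control.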"}, "ryegrass, Italian [3]": {"test_system": "ryegrass, Italian", "experiment": "Test C postemergence", "format": "in vivo, Lolium multiflorum", "conditions": "10 days, 0 to 100 scale (0 no effect, 100 complete control)", "outline": "as §2"}, "galium": {"test_system": "galium", "experiment": "Test C postemergence", "format": "in vivo, Galium aparine", "conditions": "10 days, 0 to 100 scale (0 no effect, 100 complete control)", "outline": "as §2"}, "green foxtail [4]": {"test_system": "green foxtail", "experiment": "Test C preemergence", "format": "in vivo, Setaria viridis", "outline": "as §2"}, "kochia [5]": {"test_system": "kochia", "experiment": "Test C preemergence", "format": "in vivo, Bassia scoparia", "outline": "as §2"}, "pigweed, palmer [6]": {"test_system": "pigweed, palmer", "experiment": "Test C postemergence", "format": "in vivo, Amaranthus palmeri", "conditions": "10 days, 0 to 100 scale (0 no effect, 100 complete control)", "outline": "as §2"}, "ducksalad": {"test_system": "ducksalad", "experiment": "Test D flooded paddy test", "format": "in vivo, Heteranthera limosa", "conditions": "250 g ai/ha, applied to paddy water, visual rating after 13 to 14 days, scale 0 to 100 (0 no effect, 100 complete control)", "outline": "as §1"}, "horseweed": {"test_system": "horseweed", "experiment": "Test C postemergence", "format": "in vivo, Erigeron canadensis", "conditions": "10 days, 0 to 100 scale (0 no effect, 100 complete control)", "outline": "as §2"}, "oat, wild [7]": {"test_system": "oat, wild", "experiment": "Test C preemergence", "format": "in vivo, Avena fatua", "outline": "as §2"}, "kochia [8]": {"test_system": "kochia", "experiment": "Test C postemergence", "format": "in vivo, Bassia scoparia", "conditions": "10 days, 0 to 100 scale (0 no effect, 100 complete control)", "outline": "as §2"}, "barnyardgrass [9]": {"test_system": "barnyardgrass", "experiment": "Test C preemergence", "format": "in vivo, Echinochloa crusgalli", "outline": "as §2"}, "wheat [10]": {"test_system": "wheat", "experiment": "Test C postemergence", "format": "in vivo, Triticum aestivum", "conditions": "10 days, 0 to 100 scale (0 no effect, 100 complete control)", "outline": "as §2"}, "ryegrass, Italian [11]": {"test_system": "ryegrass, Italian", "experiment": "Test C preemergence", "format": "in vivo, Lolium multiflorum", "outline": "as §2"}, "ragweed [12]": {"test_system": "ragweed", "experiment": "Test C postemergence", "format": "in vivo, Ambrosia artemisiifolia", "conditions": "10 days, 0 to 100 scale (0 no effect, 100 complete control)", "outline": "as §2"}, "blackgrass [13]": {"test_system": "blackgrass", "experiment": "Test C preemergence", "format": "in vivo, Alopecurus myosuroides", "outline": "as §2"}, "oat, wild [14]": {"test_system": "oat, wild", "experiment": "Test C postemergence", "format": "in vivo, Avena fatua", "conditions": "10 days, 0 to 100 scale (0 no effect, 100 complete control)", "outline": "as §2"}, "corn [15]": {"test_system": "corn", "experiment": "Test C preemergence", "format": "in vivo, Zea mays", "outline": "as §2"}, "corn [16]": {"test_system": "corn", "experiment": "Test C postemergence", "format": "in vivo, Zea mays", "conditions": "10 days, 0 to 100 scale (0 no effect, 100 complete control)", "outline": "as §2"}, "blackgrass [17]": {"test_system": "blackgrass", "experiment": "Test C postemergence", "format": "in vivo, Alopecurus myosuroides", "conditions": "10 days, 0 to 100 scale (0 no effect, 100 complete control)", "outline": "as §2"}, "sedge, umbrella": {"test_system": "sedge, umbrella", "experiment": "Test D flooded paddy test", "format": "in vivo, Cyperus difformis", "conditions": "250 g ai/ha, applied to paddy water, visual rating after 13 to 14 days, scale 0 to 100 (0 no effect, 100 complete control)", "outline": "as §1"}, "ragweed [18]": {"test_system": "ragweed", "experiment": "Test C preemergence", "format": "in vivo, Ambrosia artemisiifolia", "outline": "as §2"}, "pigweed, palmer [19]": {"test_system": "pigweed, palmer", "experiment": "Test C preemergence", "format": "in vivo, Amaranthus palmeri", "outline": "as §2"}, "soybean [20]": {"test_system": "soybean", "experiment": "Test C postemergence", "format": "in vivo, Glycine max", "conditions": "10 days, 0 to 100 scale (0 no effect, 100 complete control)", "outline": "as §2"}, "barnyardgrass [21]": {"test_system": "barnyardgrass", "experiment": "Test C postemergence", "format": "in vivo, Echinochloa crusgalli", "conditions": "10 days, 0 to 100 scale (0 no effect, 100 complete control)", "outline": "as §2"}, "green foxtail [22]": {"test_system": "green foxtail", "experiment": "Test C postemergence", "format": "in vivo, Setaria viridis", "conditions": "10 days, 0 to 100 scale (0 no effect, 100 complete control)", "outline": "as §2"}, "soybean [23]": {"test_system": "soybean", "experiment": "Test C preemergence", "format": "in vivo, Glycine max", "outline": "as §2"}, "[24]": {"conditions": "500 g ai/ha, preemergence, 0 to 100 scale (0 no effect, 100 complete control)"}, "[25]": {"conditions": "Preemergence, 125 g ai/ha, 0 to 100 scale, 0 no effect, 100 complete control"}}, "data": [{"smiles": "Cc1ccc(-n2cnc(CC#N)n2)cc1C(=O)N1C[C@H](C)Oc2c(Cl)cccc21", "note": "[Compound 364]", "values": [{"measurement": "Plant response rating, Barnyardgrass (Flood)", "setting": "barnyardgrass [1]", "value": 10}, {"measurement": "Plant response rating, Rice (Flood)", "setting": "rice", "value": 10}, {"measurement": "Wheat plant response rating", "setting": "wheat [2]; [24]", "value": 40}, {"measurement": "Plant response rating, Wheat", "setting": "wheat [2]; [25]", "value": 0}, {"measurement": "Plant response rating, Ryegrass, Italian", "setting": "ryegrass, Italian [3]; 500 g ai/ha, postemergence", "value": 100}, {"measurement": "Plant response rating, Ryegrass, Italian", "setting": "ryegrass, Italian [3]; Postemergence, 125 g ai/ha", "value": 70}, {"measurement": "Plant response rating, Galium", "setting": "galium; 500 g ai/ha, postemergence", "value": 100}, {"measurement": "Plant response rating, Galium", "setting": "galium; Postemergence, 125 g ai/ha", "value": 100}, {"measurement": "Foxtail, Green plant response rating", "setting": "green foxtail [4]; [24]", "value": 100}, {"measurement": "Plant response rating, Foxtail, Green", "setting": "green foxtail [4]; [25]", "value": 100}, {"measurement": "Kochia plant response rating", "setting": "kochia [5]; [24]", "value": 90}, {"measurement": "Plant response rating, Kochia", "setting": "kochia [5]; [25]", "value": 70}, {"measurement": "Plant response rating, Pigweed, Palmer", "setting": "pigweed, palmer [6]; 500 g ai/ha, postemergence", "value": 90}, {"measurement": "Plant response rating, Pigweed, Palmer", "setting": "pigweed, palmer [6]; Postemergence, 125 g ai/ha", "value": 70}, {"measurement": "Plant response rating, Ducksalad (Flood)", "setting": "ducksalad", "value": 80}, {"measurement": "Plant response rating, Horseweed", "setting": "horseweed; 500 g ai/ha, postemergence", "value": 0}, {"measurement": "Plant response rating, Horseweed", "setting": "horseweed; Postemergence, 125 g ai/ha", "value": 0}, {"measurement": "Oat, Wild plant response rating", "setting": "oat, wild [7]; [24]", "value": 30}, {"measurement": "Plant response rating, Oat, Wild", "setting": "oat, wild [7]; [25]", "value": 10}, {"measurement": "Plant response rating, Kochia", "setting": "kochia [8]; 500 g ai/ha, postemergence", "value": 90}, {"measurement": "Plant response rating, Kochia", "setting": "kochia [8]; Postemergence, 125 g ai/ha", "value": 70}, {"measurement": "Barnyardgrass plant response rating", "setting": "barnyardgrass [9]; [24]", "value": 100}, {"measurement": "Plant response rating, Barnyardgrass", "setting": "barnyardgrass [9]; [25]", "value": 50}, {"measurement": "Plant response rating, Wheat", "setting": "wheat [10]; 500 g ai/ha, postemergence", "value": 80}, {"measurement": "Plant response rating, Wheat", "setting": "wheat [10]; Postemergence, 125 g ai/ha", "value": 30}, {"measurement": "Ryegrass, Italian plant response rating", "setting": "ryegrass, Italian [11]; [24]", "value": 90}, {"measurement": "Plant response rating, Ryegrass, Italian", "setting": "ryegrass, Italian [11]; [25]", "value": 60}, {"measurement": "Plant response rating, Ragweed", "setting": "ragweed [12]; 500 g ai/ha, postemergence", "value": 80}, {"measurement": "Plant response rating, Ragweed", "setting": "ragweed [12]; Postemergence, 125 g ai/ha", "value": 70}, {"measurement": "Blackgrass plant response rating", "setting": "blackgrass [13]; [24]", "value": 90}, {"measurement": "Plant response rating, Blackgrass", "setting": "blackgrass [13]; [25]", "value": 60}, {"measurement": "Plant response rating, Oat, Wild", "setting": "oat, wild [14]; 500 g ai/ha, postemergence", "value": 70}, {"measurement": "Plant response rating, Oat, Wild", "setting": "oat, wild [14]; Postemergence, 125 g ai/ha", "value": 60}, {"measurement": "Corn plant response rating", "setting": "corn [15]; [24]", "value": 30}, {"measurement": "Plant response rating, Corn", "setting": "corn [15]; [25]", "value": 10}, {"measurement": "Plant response rating, Corn", "setting": "corn [16]; 500 g ai/ha, postemergence", "value": 50}, {"measurement": "Plant response rating, Corn", "setting": "corn [16]; Postemergence, 125 g ai/ha", "value": 30}, {"measurement": "Plant response rating, Blackgrass", "setting": "blackgrass [17]; 500 g ai/ha, postemergence", "value": 100}, {"measurement": "Plant response rating, Blackgrass", "setting": "blackgrass [17]; Postemergence, 125 g ai/ha", "value": 90}, {"measurement": "Plant response rating, Sedge, Umbrella (Flood)", "setting": "sedge, umbrella", "value": 95}, {"measurement": "Ragweed plant response rating", "setting": "ragweed [18]; [24]", "value": 80}, {"measurement": "Plant response rating, Ragweed", "setting": "ragweed [18]; [25]", "value": 20}, {"measurement": "Pigweed, Palmer plant response rating", "setting": "pigweed, palmer [19]; [24]", "value": 100}, {"measurement": "Plant response rating, Pigweed, Palmer", "setting": "pigweed, palmer [19]; [25]", "value": 100}, {"measurement": "Plant response rating, Soybean", "setting": "soybean [20]; 500 g ai/ha, postemergence", "value": 100}, {"measurement": "Plant response rating, Soybean", "setting": "soybean [20]; Postemergence, 125 g ai/ha", "value": 100}, {"measurement": "Plant response rating, Barnyardgrass", "setting": "barnyardgrass [21]; 500 g ai/ha, postemergence", "value": 80}, {"measurement": "Plant response rating, Barnyardgrass", "setting": "barnyardgrass [21]; Postemergence, 125 g ai/ha", "value": 50}, {"measurement": "Plant response rating, Foxtail, Green", "setting": "green foxtail [22]; 500 g ai/ha, postemergence", "value": 90}, {"measurement": "Plant response rating, Foxtail, Green", "setting": "green foxtail [22]; Postemergence, 125 g ai/ha", "value": 80}, {"measurement": "Soybean plant response rating", "setting": "soybean [23]; [24]", "value": 100}, {"measurement": "Plant response rating, Soybean", "setting": "soybean [23]; [25]", "value": 100}]}]}
